In brackets after ≈: the same amount, converted by molar mass.
Experiments:
Format in all cases: cell-based
[1] = system: Staphylococcus aureus NRS384 (MRSA); assay: Broth microdilution MIC, S. aureus NRS384 (MRSA); conditions: Staphylococcus aureus; broth microdilution, 37° C., 20 hours; read-out: MIC NRS 384 (MRSA)
Procedure, shortened: (§1)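 Two-fold dilutions from 64 to 0.0625 μg/ml final, 1% DMSO, were inoculated at ~5.0×10^5 cfu/ml in the strain's test medium and kept 20 h at 37 °C in ambient atmosphere. Colonies were grown on MHA, with S. pneumoniae on blood agar under 5% CO2.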

[2] = system: Staphylococcus aureus ATCC 29213 (MSSA); assay: Broth microdilution MIC, S. aureus ATCC 29213 (MSSA); conditions: broth microdilution, 37° C., 20 hours, read-out: MIC S. aureus ATCC 29213 (MSSA)
Procedure, shortened: as §1

[3] = system: Enterococcus faecalis ATCC 29212; assay: Broth microdilution MIC, E. faecalis ATCC 29212; conditions: ATCC29212, broth microdilution, 37° C., 20 hours, read-out: MIC E. faecalis ATCC 29212
Procedure, shortened: as §1

[4] = system: Enterococcus faecium ATCC 700221 (VRE); assay: Broth microdilution MIC, E. faecium ATCC 700221 (VRE); conditions: Enterococcus faecium; broth microdilution, 37° C., 20 hours; read-out: MIC E. faecium ATCC 700221 (VRE)
Procedure, shortened: as §1

[5] = system: Streptococcus pneumoniae ATCC 49619; assay: Broth microdilution MIC, S. pneumoniae ATCC 49619; conditions: ATCC49619, broth microdilution, 37° C., 20 hours, read-out: MIC S. pneumoniae ATCC 49619
Procedure, shortened: as §1

[6] = system: Bacillus subtilis ATCC 6633; assay: Broth microdilution MIC, B. subtilis ATCC 6633; conditions: ATCC6633, broth microdilution, 37° C., 20 hours, read-out: MIC B. subtilis ATCC 6633
Procedure, shortened: as §1

[7] = system: Escherichia coli ATCC 25922; assay: Broth microdilution MIC, E. coli ATCC 25922 (MHIIB w & w/o 4 mM EDTA); conditions: broth microdilution, 37° C., 20 hours; for MIC: Escherichia coli, ATCC25922, without EDTA, read-out: MIC E. coli ATCC 25922; for MIC E. coli ATCC 25922 + 4 mM EDTA: with 4 mM EDTA
Procedure, shortened: as §1

Row | MIC [1] [µg/mL] | MIC [2] [µg/mL] | MIC [3] [µg/mL] | MIC [4] [µg/mL] | MIC [5] [µg/mL] | MIC [6] [µg/mL] | MIC [7] [µg/mL] | MIC E. coli ATCC 25922 + 4 mM EDTA [7] [µg/mL] | Compound
1 | 8 (≈ 19.2 µM) | 8 (≈ 19.2 µM) | 8 (≈ 19.2 µM) | 4 (≈ 9.61 µM) | 4 (≈ 9.61 µM) | 2 (≈ 4.8 µM) | > 64 | >64 | O=c1[nH]c(NCc2ccc(Cl)c(Cl)c2)nc2cnn(CCc3ncccn3)c12 [Compound 117, 5-((3,4-Dichlorobenzyl)amino)-1-(2-(pyrimidin-2-yl)ethyl)-1H-pyrazolo[4,3-d]pyrimidin-7(6H)-one]
2 | 2 (≈ 5.26 µM) | 2 (≈ 5.26 µM) | 2 (≈ 5.26 µM) | 1 (≈ 2.63 µM) | 2 (≈ 5.26 µM) | 0.5 (≈ 1.31 µM) | > 64 | >64 | O=c1[nH]c(NCc2ccc(Cl)c(Cl)c2)nc2cnn(CC3COC3)c12 [Compound 118, 5-((3,4-Dichlorobenzyl)amino)-1-(oxetan-3-ylmethyl)-1H-pyrazolo[4,3-d]pyrimidin-7(6H)-one]
3 | 2 (≈ 5.26 µM) | 2 (≈ 5.26 µM) | 4 (≈ 10.5 µM) | 2 (≈ 5.26 µM) | 4 (≈ 10.5 µM) | 1 (≈ 2.63 µM) | > 64 | >64 | O=c1[nH]c(NCc2ccc(Cl)c(Cl)c2)nc2cnn(CC3CCO3)c12 (centres unmarked) [Compound 122, 5-((3,4-Dichlorobenzyl)amino)-1-(oxetan-2-ylmethyl)-1H-pyrazolo[4,3-d]pyrimidin-7(6H)-one]
4 | 2 (≈ 5.43 µM) | 2 (≈ 5.43 µM) | 4 (≈ 10.9 µM) | 1 (≈ 2.72 µM) | 2 (≈ 5.43 µM) | 0.5 (≈ 1.36 µM) | > 64 | >64 | O=c1[nH]c(NCc2ccc(Cl)c(Cl)c2)nc2cnn(CCCO)c12 [Compound 123, 5-((3,4-Dichlorobenzyl)amino)-1-(3-hydroxypropyl)-1H-pyrazolo[4,3-d]pyrimidin-7(6H)-one]
5 | 2 (≈ 4.87 µM) | 2 (≈ 4.87 µM) | 4 (≈ 9.75 µM) | 2 (≈ 4.87 µM) | 4 (≈ 9.75 µM) | 1 (≈ 2.44 µM) | > 64 | >64 | COCCCCCn1ncc2nc(NCc3ccc(Cl)c(Cl)c3)[nH]c(=O)c21 [Compound 131, 5-((3,4-Dichlorobenzyl)amino)-1-(5-methoxypentyl)-1H-pyrazolo[4,3-d]pyrimidin-7(6H)-one]

Second part, the molecule before the results:

Row | Compound | MIC [1] [µg/mL] | MIC [2] [µg/mL] | MIC [3] [µg/mL] | MIC [4] [µg/mL] | MIC [5] [µg/mL] | MIC [6] [µg/mL] | MIC [7] [µg/mL] | MIC E. coli ATCC 25922 + 4 mM EDTA [7] [µg/mL]
6 | O=c1[nH]c(NCc2ccc(Cl)c(Cl)c2)nc2cnn(C3CCOC3)c12 (centres unmarked) [Compound 119, 5-((3,4-Dichlorobenzyl)amino)-1-(tetrahydrofuran-3-yl)-1H-pyrazolo[4,3-d]pyrimidin-7(6H)-one] | 4 (≈ 10.5 µM) | 2 (≈ 5.26 µM) | 4 (≈ 10.5 µM) | 2 (≈ 5.26 µM) | 4 (≈ 10.5 µM) | 1 (≈ 2.63 µM) | > 64 | >64
7 | O=c1[nH]c(NCc2ccc(Cl)c(Cl)c2)nc2cnn(CC3CCOC3)c12 (centres unmarked) [Compound 120, 5-((3,4-Dichlorobenzyl)amino)-1-((tetrahydrofuran-3-yl)methyl)-1H-pyrazolo[4,3-d]pyrimidin-7(6H)-one] | 2 (≈ 5.07 µM) | 2 (≈ 5.07 µM) | 4 (≈ 10.1 µM) | 2 (≈ 5.07 µM) | 4 (≈ 10.1 µM) | 1 (≈ 2.54 µM) | > 64 | >64
8 | O=c1[nH]c(NCc2ccc(Cl)c(Cl)c2)nc2cnn(C3CCOCC3)c12 [Compound 121, 5-((3,4-Dichlorobenzyl)amino)-1-(tetrahydro-2H-pyran-4-yl)-1H-pyrazolo[4,3-d]pyrimidin-7(6H)-one] | 2 (≈ 5.07 µM) | 4 (≈ 10.1 µM) | 4 (≈ 10.1 µM) | 2 (≈ 5.07 µM) | 4 (≈ 10.1 µM) | 0.5 (≈ 1.27 µM) | > 64 | >64
9 | Cl.O=c1[nH]c(NCc2ccc(Cl)c(Cl)c2)nc2cnn(CCc3cnccn3)c12 [Compound 124, 5-((3,4-Dichlorobenzyl)amino)-1-(2-(pyrazin-2-yl)ethyl)-1H-pyrazolo[4,3-d]pyrimidin-7(6H)-one hydrochloride] | 2 | 4 | 4 | 2 | 8 | 1 | > 64 | >64
10 | O=c1[nH]c(NCc2ccc(F)c(F)c2)nc2cnn(CC3CCO3)c12 (centres unmarked) [Compound 125, 5-((3,4-Difluorobenzyl)amino)-1-(oxetan-2-ylmethyl)-1H-pyrazolo[4,3-d]pyrimidin-7(6H)-one] | 32 (≈ 92.1 µM) | 32 (≈ 92.1 µM) | 32 (≈ 92.1 µM) | 32 (≈ 92.1 µM) | 8 (≈ 23 µM) | 32 (≈ 92.1 µM) | > 64 | >64
11 | O=c1[nH]c(NCc2ccc(Cl)c(Cl)c2)nc2cnn(Cc3ccccc3)c12 [Compound 127, 1-Benzyl-5-((3,4-dichlorobenzyl)amino)-1H-pyrazolo[4,3-d]pyrimidin-7(6H)-one] | > 64 | > 64 | > 64 | 32 (≈ 79.9 µM) | > 64 | 1 (≈ 2.5 µM) | > 64 | >64
12 | COCCn1cc2nc(NCc3ccc(Cl)c(Cl)c3)[nH]c(=O)c2n1 [Compound 128, 5-((3,4-Dichlorobenzyl)amino)-2-(2-methoxyethyl)-2H-pyrazolo[4,3-d]pyrimidin-7(6H)-one] | 32 (≈ 86.9 µM) | 32 (≈ 86.9 µM) | 32 (≈ 86.9 µM) | 32 (≈ 86.9 µM) | 16 (≈ 43.5 µM) | 16 (≈ 43.5 µM) | > 64 | >64
13 | O=c1[nH]c(NCc2ccc(Cl)c(Cl)c2)nc2cn(Cc3ccccc3)nc12 [Compound 129, 2-Benzyl-5-((3,4-dichlorobenzyl)amino)-2H-pyrazolo[4,3-d]pyrimidin-7(6H)-one] | > 64 | > 64 | > 64 | > 64 | > 64 | > 64 | > 64 | >64
14 | CC(C)n1ncc2nc(NCc3ccc(Cl)c(Cl)c3)[nH]c(=O)c21 [Compound 130, 5-((3,4-Dichlorobenzyl)amino)-1-isopropyl-1H-pyrazolo[4,3-d]pyrimidin-7(6H)-one] | 2 (≈ 5.68 µM) | 2 (≈ 5.68 µM) | 4 (≈ 11.4 µM) | 2 (≈ 5.68 µM) | 4 (≈ 11.4 µM) | 1 (≈ 2.84 µM) | > 64 | 16
15 | CC(C)n1cc2nc(NCc3ccc(Cl)c(Cl)c3)[nH]c(=O)c2n1 [Compound 132, 5-((3,4-Dichlorobenzyl)amino)-2-isopropyl-2H-pyrazolo[4,3-d]pyrimidin-7(6H)-one] | > 64 | > 64 | > 64 | 16 (≈ 45.4 µM) | 16 (≈ 45.4 µM) | 8 (≈ 22.7 µM) | > 64 | >64
16 | COCCCCCn1cc2nc(NCc3ccc(Cl)c(Cl)c3)[nH]c(=O)c2n1 [Compound 133, 5-((3,4-Dichlorobenzyl)amino)-2-(5-methoxypentyl)-2H-pyrazolo[4,3-d]pyrimidin-7(6H)-one] | > 64 | > 64 | > 64 | 64 (≈ 156 µM) | 16 (≈ 39 µM) | 8 (≈ 19.5 µM) | > 64 | >64
